For one series, the system named is B 16-F0 cells. As to the kind of experiment: In vivo pharmacodynamics on melanoma (B16) in immunocompetent mouse model. The following applies: positive control, 4 mg/kg i.p. QW. The procedure: The STP355 drug used in this example is the STP355 drug prepared in Example 9. C57BL/6J mice were inoculated with B 16-F0 cells subcutaneously on the back, inoculation volume: 1×10^6/100 µL/mice, 50 mice were inoculated, location: the right back of the mice. The average tumor volume was 80~100 mm^3 and started to be administered in groups. The dose of 2 mg/kg was administered intravenously, twice a week, for a total of 8 administrations, and the positive control group was administered with cisplatin, […], A total of 8 doses were administered.

For the next series, the system named is MC38-hPDL1 cells. Put plainly: In vivo pharmacodynamics on humanized PDL1 locus colorectal cancer tumors (MC38-hPDL1) in immunocompetent mice. The following applies: positive control 4mpk, BIW*4W, I.P. Set-up: species or system C57BL/6J mice. The method, then:
The STP355 drug used in this example is the STP355 drug prepared in Example 9. C57BL/6J mice were subcutaneously inoculated with humanized PDL1 locus colorectal cancer tumor MC38-hPDL1 cells on the back, inoculation volume: 1×10^6/100 µL/mouse, inoculation location: above the right thigh of the mouse. When the average tumor volume reached 100 mm^3, group administration was started, divided into 4 groups, 8 animals/group. In this experiment, the doses of 4 mg/kg and 6 mg/kg were tested, and a model group was established, and the positive control group Tecentrip (atezolizumab) . The drug was administered twice a week for a total of 8 times. On the 0th, 3rd, 7th, 10th, 14th, 17th, 21st, 24th and 28th days, the tumor volume was measured with a vernier caliper, and the tumor growth inhibition rate TGI% was calculated according to the formula.
Calculation formula: TGI % = [1-(Ti-T0)/ (Vi-V0)] ×100%. • Ti represents the mean tumor volume of the treatment group at a certain time point, • T0 represents the mean tumor volume of the treatment group on day 0, • Vi represents the mean tumor volume of the model group at the same time point as Ti, • V0 represents the mean tumor volume of the model group at day 0.

Series [1] relates to TGF-β1. As to the kind of experiment: EC50 of TGF-β1 siRNA candidates before and after modification, knockdown in cells. In kind it is cell-based. The following applies: 293T cells, homo, 24h, 24well (second TGF-β1 table).
In series [2] the test system is TGF-β1. Described as above. In kind it is cell-based, human. The method, then:
DLD-1, RKO, U87-MG and PANC-1 cells were seeded into 24-well cell plates (1 × 10^5/well), and then siRNAs (21mer or negative control) were transfected with commercial transfection reagent (lipo2000). The siRNA transfection concentration was 100 nM. Untreated cells were set as a blank control. Total RNA was extracted from cells 24 h after transfection. Reverse transcription was performed using the kit to obtain cDNA according to the manufacturer’s instructions. Relative levels of target gene TGF- β1 mRNA expression were determined by real-time PCR, normalized to the housekeeping gene β-actin. Gene knockdown effectiveness was expressed as a percentage of the blank control. […] Therefore, TF1-21-hm3# and TF1-21-hm6# were selected as candidate sequences, and these two sequences were modified (see Table 4 for modified sequences).
The EC50 of candidate sequences before and after modification in different cells (U87-MG, DLD-1, SK-Hep-1, BxPC3, A549, HUCCT, PANC-1 and RKO) were compared. U87-MG, DLD-1, SK-Hep-1, BxPC3, A549, HUCCT, PANC-1 and RKO cells were seeded in 24-well cell plates (1 × 10^5/well) and transfected with multiple concentration gradients in different cells for siRNA candidates (modified or unmodified), use the same procedure as for primary screening. Finally, the data were plotted using the software GraphPad Prism8 and EC50 values were calculated.

The mark [3] stands for this setting: Hucct cells, homo, 24h, 24well (second TGF-β1 table), read-out: EC50 (24h, nM, 24well) Hucct.
The mark [4] stands for this setting: A549 cells, homo, 24 h, 24well (Table 6), read-out: EC50 (nM, 24 h, 24well) A549.
[5] abbreviates: BxPC3 cells, homo, 24 h, 24well (Table 6), read-out: EC50 (nM, 24 h, 24well) BxPC3.
The mark [6] stands for this setting: RKO cells, homo, 24 h, 24well (Table 6), read-out: EC50 (nM, 24 h, 24well) RKO.
[7] abbreviates: SK-Hep1 cells, homo, 24 h, 24well (Table 6), read-out: EC50 (nM, 24 h, 24well) SK-Hep1.
Setting [8] is: U87MG cells, homo, 24 h, 24well (Table 6), read-out: EC50 (nM, 24 h, 24well) U87MG.

Where two headings read alike, the source gives them in different places. Oligonucleotides are written 5' to 3', each unit as a sugar letter and its base; * is a phosphorothioate linkage, no mark a phosphodiester; rarer units and linkages stand in square brackets, end groups in braces. Plain capitals give the bases only. {P} = phosphorylation (indicated by P); d = 2'-deoxy (DNA); m = 2'-O-methyl; r = 2'-OH (RNA); f = 2'-fluoro

Regarding `N.N.[Cl][Pt][Cl]` [cisplatin], the anti-tumor effect result with B 16-F0 cells is “significant anti-tumor effects”.

As to atezolizumab [Tecentrip], the “tumor weight versus model group” value in the series on MC38-hPDL1 cells is “significantly lower than the model group”. Further, the “tumor volume versus model control group” value in the series with MC38-hPDL1 cells (day 7 to day 28) was “significantly smaller than that of the model control group”.

With “TF1-20190711-1#: siRNA targeting TGF-β1 mRNA; sense SEQ ID 1, antisense SEQ ID 2 (sense GCAGAGUACACACAGCAUATT; antisense UAUGCUGUGUGUACUCUGCTT; sugars from the 5' end r19 d2, backbone not given here)”, the EC50 in the series with TGF-β1 [1] worked out at 0.08 nM; with TGF-β1 [2] (setting [3]), 0.002 nM; with TGF-β1 [2] (SK-Hep 1 cells, homo, 24h, 24well (second TGF-β1 table), read-out: EC50 (24h, nM, 24well) SK-Hep 1) it was 1.6 nM.

In the case of “TF1-21-hm6#mod: Modified (2′F, 2′OME, phosphorylation) siRNA targeting TGF-β1; sense SEQ ID 148, antisense SEQ ID 152 (sense mCmGmGmCmAmGfCfUfGmUmAmCmAmUmUmGmAmCmUdTdT; antisense {P}-mAfGmUmCmAmAmUmGmUmAmCmAmGfCmUmGmCmCmGdTdT)”, the EC50 in the series with TGF-β1 [1] is 0.1 nM; in the series with TGF-β1 [2] (setting [4]) it was 0.22 nM; with TGF-β1 [2] (setting [5]), 0.01 nM; in the series with TGF-β1 [2] (setting [6]), 0.04 nM; with TGF-β1 [2] (setting [7]) it was 0.59 nM; in the series with TGF-β1 [2] (setting [8]), 0.09 nM.

Consider “TF1-21-hm6#: siRNA targeting TGF-β1 mRNA; sense SEQ ID 26, antisense SEQ ID 36 (sense CGGCAGCUGUACAUUGACUTT; antisense AGUCAAUGUACAGCUGCCGTT; sugars from the 5' end r19 d2, backbone not given here)”, for which the concentration giving a half-maximal response (EC50) was 0.11 nM with TGF-β1 [1]; 3.02 nM with TGF-β1 [2] (setting [4]); 3 nM with TGF-β1 [2] (A549 cells, homo, 24h, 24well (second TGF-β1 table), read-out: EC50 (24h, nM, 24well) A549); 0.03 nM in the series on TGF-β1 [2] (setting [5]); 0.9 nM in the series with TGF-β1 [2] (DLD-1 cells, Homo, 24h, 24well (second TGF-β1 table), read-out: EC50 (24h, nM, 24well) DLD-1); 0.85 nM in the series with TGF-β1 [2] (DLD-1 cells, homo, 24 h, 24well (Table 6), read-out: EC50 (nM, 24 h, 24well) DLD-1). In addition, the 50% effective concentration (EC50) with TGF-β1 [2] (Hucct cells, homo, 24 h, 24well (Table 6), read-out: EC50 (nM, 24 h, 24well) Hucct) is 0.01 nM; in the series on TGF-β1 [2] (setting [3]) it was 0.007 nM; in the series on TGF-β1 [2] (PANC-1 cells, homo, 24 h, 24well (Table 6), read-out: EC50 (nM, 24 h, 24well) PANC-1) it was 12.7 nM; in the series with TGF-β1 [2] (PANC-1 cells, homo, 24h, 24well (second TGF-β1 table), read-out: EC50 (24h, nM, 24well) PANC -1), 12.7 nM; in the series on TGF-β1 [2] (setting [6]), 0.05 nM; in the series with TGF-β1 [2] (RKO cells, homo, 24h, 24well (second TGF-β1 table), read-out: EC50 (24h, nM, 24well) RKO) it was 0.048 nM. In addition, the half-maximal effective concentration (EC50) in the series on TGF-β1 [2] (setting [7]) is 0.22 nM; in the series with TGF-β1 [2] (setting [8]) it was 0.12 nM; in the series on TGF-β1 [2] (U87MG cells, homo, 24h, 24well (second TGF-β1 table), read-out: EC50 (24h, nM, 24well) U87M G) it was 0.1 nM.

The record behind these values is patent US20230323358A1, “COMPOSITION AND USE OF siRNAs AGAINST VEGFR2 AND TGF-BETA1 IN COMBINATION THERAPY FOR CANCER” (Sirnaomics, Inc., priority 2021, published 2023).
